Calls of active or inactive are those of the source. No cut-off for these calls is given here.
Legend:
[1] = molecular target: T1, Protein cereblon/Androgen receptor (Homo sapiens, UniProt P10275+Q96SW2); test: PROTAC activity at CRBN/AR in human 22Rv1 cells assessed as induction of AR degradation at 0.1 uM incubated for 24 hrs by Western blot analysis relative to control; format: cell-based
Target sequence in this assay (P10275 whole entry, looked up, canonical isoform): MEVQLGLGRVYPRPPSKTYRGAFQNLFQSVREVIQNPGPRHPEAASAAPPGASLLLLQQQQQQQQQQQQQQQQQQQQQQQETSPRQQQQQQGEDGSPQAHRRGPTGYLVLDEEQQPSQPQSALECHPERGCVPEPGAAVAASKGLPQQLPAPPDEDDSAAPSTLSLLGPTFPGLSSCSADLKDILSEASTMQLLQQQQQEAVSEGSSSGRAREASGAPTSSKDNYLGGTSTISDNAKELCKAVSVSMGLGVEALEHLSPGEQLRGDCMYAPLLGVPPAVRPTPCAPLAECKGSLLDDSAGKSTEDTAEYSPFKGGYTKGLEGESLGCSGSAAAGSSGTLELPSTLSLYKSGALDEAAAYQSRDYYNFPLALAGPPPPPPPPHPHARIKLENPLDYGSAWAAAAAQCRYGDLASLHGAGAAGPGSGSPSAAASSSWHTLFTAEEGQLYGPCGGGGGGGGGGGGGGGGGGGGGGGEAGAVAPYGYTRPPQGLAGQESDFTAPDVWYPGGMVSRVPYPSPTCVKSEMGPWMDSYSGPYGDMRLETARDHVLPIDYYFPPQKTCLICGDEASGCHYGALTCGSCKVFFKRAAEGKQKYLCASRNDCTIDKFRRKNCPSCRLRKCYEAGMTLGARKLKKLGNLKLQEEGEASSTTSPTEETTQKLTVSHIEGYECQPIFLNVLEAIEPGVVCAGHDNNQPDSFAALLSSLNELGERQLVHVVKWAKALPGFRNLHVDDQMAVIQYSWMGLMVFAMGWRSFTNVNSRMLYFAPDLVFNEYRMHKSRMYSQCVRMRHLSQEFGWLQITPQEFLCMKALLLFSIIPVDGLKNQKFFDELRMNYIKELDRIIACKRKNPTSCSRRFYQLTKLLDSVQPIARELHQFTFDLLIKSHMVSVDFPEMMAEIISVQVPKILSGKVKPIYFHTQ
Target sequence in this assay (Q96SW2 whole entry, looked up, canonical isoform): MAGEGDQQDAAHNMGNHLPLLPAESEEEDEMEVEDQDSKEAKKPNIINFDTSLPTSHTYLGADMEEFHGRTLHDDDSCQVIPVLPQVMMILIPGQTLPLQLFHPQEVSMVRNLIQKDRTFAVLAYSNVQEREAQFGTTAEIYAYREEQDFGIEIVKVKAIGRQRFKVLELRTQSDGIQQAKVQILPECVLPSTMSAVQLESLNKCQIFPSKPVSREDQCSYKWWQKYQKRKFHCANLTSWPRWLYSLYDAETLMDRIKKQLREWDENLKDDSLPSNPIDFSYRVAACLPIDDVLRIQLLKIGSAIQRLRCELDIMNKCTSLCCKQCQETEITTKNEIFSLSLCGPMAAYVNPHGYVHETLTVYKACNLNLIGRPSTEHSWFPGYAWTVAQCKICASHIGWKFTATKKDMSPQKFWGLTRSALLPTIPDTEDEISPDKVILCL

[2] = test system: Protein cereblon/Androgen receptor (Homo sapiens), P10275+Q96SW2 [UNDEFINED MUTATION]; test: PROTAC activity at CRBN/Androgen receptor splice variant 7 in human 22Rv1 cells assessed as induction of AR-V7 degradation at 0.1 uM incubated for 24 hrs by Western blot analysis relative to control; format: cell-based
Sequence of Protein cereblon/Androgen receptor (Homo sapiens), P10275+Q96SW2 [UNDEFINED MUTATION] (P10275 whole entry, looked up, stated change not applied, canonical isoform): as the sequence (P10275 whole entry, looked up, canonical isoform) above
Sequence of Protein cereblon/Androgen receptor (Homo sapiens), P10275+Q96SW2 [UNDEFINED MUTATION] (Q96SW2 whole entry, looked up, stated change not applied, canonical isoform): as the sequence (Q96SW2 whole entry, looked up, canonical isoform) above

[3] = test system: Protein cereblon/Androgen receptor (Homo sapiens), P10275+Q96SW2 [UNDEFINED MUTATION]; test: PROTAC activity at CRBN/Androgen receptor splice variant 7 in human VCaP cells assessed as induction of AR-V7 degradation at 0.01 uM incubated for 24 hrs by Western blot analysis relative to control; format: cell-based
[4] = molecular target: T2, Protein cereblon/Eukaryotic peptide chain release factor GTP-binding subunit ERF3A (Homo sapiens, UniProt Q96SW2+P15170); test: Molecular glue activity at CRBN/GSPT1 in human 22Rv1 cells assessed as induction of GSPT1 degradation at 0.1 uM incubated for 24 hrs by Western blot analysis relative to control; format: cell-based
T2 sequence (P15170 whole entry, looked up): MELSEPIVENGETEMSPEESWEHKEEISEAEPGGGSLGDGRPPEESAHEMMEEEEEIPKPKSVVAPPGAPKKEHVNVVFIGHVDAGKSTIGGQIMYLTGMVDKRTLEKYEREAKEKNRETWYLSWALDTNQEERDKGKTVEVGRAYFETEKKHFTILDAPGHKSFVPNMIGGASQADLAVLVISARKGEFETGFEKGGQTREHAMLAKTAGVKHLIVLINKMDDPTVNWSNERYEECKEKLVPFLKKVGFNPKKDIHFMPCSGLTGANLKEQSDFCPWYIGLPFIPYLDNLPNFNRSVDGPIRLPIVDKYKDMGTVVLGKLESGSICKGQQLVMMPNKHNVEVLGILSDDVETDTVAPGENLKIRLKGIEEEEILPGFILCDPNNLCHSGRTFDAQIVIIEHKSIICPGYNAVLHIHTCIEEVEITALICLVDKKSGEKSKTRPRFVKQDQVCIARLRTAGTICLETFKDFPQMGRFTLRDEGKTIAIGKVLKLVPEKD
T2 sequence (Q96SW2 whole entry, looked up): as the sequence (Q96SW2 whole entry, looked up, canonical isoform) above

[5] = molecular target: T1, Protein cereblon/Androgen receptor; test: PROTAC activity at CRBN/AR in human 22Rv1 cells assessed as induction of AR degradation at 20 nM incubated for 12 hrs by Western blot analysis (reference value: 0 %); format: cell-based
Target sequence in this assay (P10275 whole entry, looked up, canonical isoform): as the sequence (P10275 whole entry, looked up, canonical isoform) above
Target sequence in this assay (Q96SW2 whole entry, looked up, canonical isoform): as the sequence (Q96SW2 whole entry, looked up, canonical isoform) above

[6] = test system: Protein cereblon/Androgen receptor (Homo sapiens), P10275+Q96SW2 [UNDEFINED MUTATION]; test: PROTAC activity at CRBN/Androgen receptor splice variant 7 in human 22Rv1 cells assessed as induction of AR-V7 degradation at 20 nM incubated for 1 hrs by Western blot analysis (reference value: 0%); format: cell-based
[7] = molecular target: T2, Protein cereblon/Eukaryotic peptide chain release factor GTP-binding subunit ERF3A; test: Molecular glue activity at CRBN/GSPT1 in human 22Rv1 cells assessed as induction of GSPT1 degradation at 20 nM incubated for 12 hrs by Western blot analysis (reference value: 0 %); format: cell-based
[8] = molecular target: T1, Protein cereblon/Androgen receptor; test: PROTAC activity at CRBN/AR in human VCaP cells assessed as induction of AR degradation incubated for 24 hrs by Western blot analysis; format: cell-based
[9] = molecular target: T2, Protein cereblon/Eukaryotic peptide chain release factor GTP-binding subunit ERF3A; test: Molecular glue activity at CRBN/GSPT1 in human VCaP cells assessed as induction of GSPT1 degradation at 20 nM by Western blot analysis; format: cell-based; settings: time 1-36 hrs
[10] = test system: Protein cereblon/Androgen receptor (Homo sapiens), P10275+Q96SW2 [UNDEFINED MUTATION]; test: PROTAC activity at CRBN/Androgen receptor splice variant 7 in human 22Rv1 cells assessed as induction of AR-V7 degradation by measuring maximal efficacy incubated for 24 hrs by Western blot analysis relative to control; format: cell-based
[11] = molecular target: T2, Protein cereblon/Eukaryotic peptide chain release factor GTP-binding subunit ERF3A; test: Molecular glue activity at CRBN/GSPT1 in human LNCaP cells assessed as induction of GSPT1 degradation by measuring maximal efficacy incubated for 24 hrs by Western blot analysis relative to control; format: cell-based
[12] = molecular target: T1, Protein cereblon/Androgen receptor; test: PROTAC activity at CRBN/AR in human 22Rv1 cells assessed as induction of AR degradation at 50 nM preincubated with MG132 followed by compound addition and measured after 12 hrs by Western blot analysis; format: cell-based
Target sequence in this assay (P10275 whole entry, looked up, canonical isoform): as the sequence (P10275 whole entry, looked up, canonical isoform) above
Target sequence in this assay (Q96SW2 whole entry, looked up, canonical isoform): as the sequence (Q96SW2 whole entry, looked up, canonical isoform) above

[13] = test system: Protein cereblon/Androgen receptor (Homo sapiens), P10275+Q96SW2 [UNDEFINED MUTATION]; test: PROTAC activity at CRBN/Androgen receptor splice variant 7 in human VCaP cells assessed as induction of AR-V7 degradation at 50 nM preincubated with MG132 followed by compound addition and measured after 12 hrs by Western blot analysis; format: cell-based
22Rv1 = test: Induction of AR degradation in human 22Rv1 cells transfected with CRBN siRNA at 30 nM incubated for 24 hrs by Western blot analysis; format: cell-based
[14] = molecular target: T2, Protein cereblon/Eukaryotic peptide chain release factor GTP-binding subunit ERF3A; test: Binding affinity to CRBN/GSPT1 in human 22Rv1 cells assessed as ternary complex formation incubated for 6 hrs by co-immunoprecipitation based Western blot analysis; format: cell-based
[15] = molecular target: T1, Protein cereblon/Androgen receptor; test: PROTAC activity at CRBN/AR in human 22Rv1 cells assessed as increase in androgen receptor polyubiquitination at 30 nM preincubated with compound for 12 hrs followed by MG132 addition and measured after 12 hrs by immunoprecipitation based Western blot analysis; format: cell-based; settings: time 24.0 hrs
Target sequence in this assay (P10275 whole entry, looked up, canonical isoform): as the sequence (P10275 whole entry, looked up, canonical isoform) above
Target sequence in this assay (Q96SW2 whole entry, looked up, canonical isoform): as the sequence (Q96SW2 whole entry, looked up, canonical isoform) above

[16] = molecular target: T2, Protein cereblon/Eukaryotic peptide chain release factor GTP-binding subunit ERF3A; test: Molecular glue activity at CRBN/GSPT1 in human 22Rv1 cells assessed as increase in GSPT1 polyubiquitination at 30 nM preincubated with compound for 12 hrs followed by MG132 addition and measured after 12 hrs by immunoprecipitation based Western blot analysis; format: cell-based; settings: time 24.0 hrs
[17] = molecular target: T2, Protein cereblon/Eukaryotic peptide chain release factor GTP-binding subunit ERF3A; test: Molecular glue activity at CRBN/GSPT1 in human 22Rv1 cells assessed as induction of GSPT1 degradation at 0.01 uM incubated for 6 hrs by Western blot analysis; format: cell-based
CWR22R [18] = test: Antiproliferative activity against AR-dependent human 22Rv1 cells assessed as cell growth inhibition incubated for 72 hrs by Celltiter-lumi luminescent cell viability assay; format: functional, cell-based; settings: 22Rv1, 72 h
[19] = Selectivity ratio of IC50 for antiproliferative activity against AR-independent human DU-145 cells assessed as cell growth inhibition to IC50 for antiproliferative activity against AR-dependent human 22Rv1 cells assessed as cell growth inhibition; format: functional
CWR22R [20] = test: Upregulation of p53 signaling pathway related gene expression in human 22Rv1 cells at 3 nM incubated for 24 hrs by KEGG enrichment analysis; format: functional, cell-based
CWR22R [21] = test: Upregulation of ribosome-related pathway gene expression in human 22Rv1 cells at 3 nM incubated for 24 hrs by GSEA analysis; format: functional, cell-based
[22] = molecular target: T1, Protein cereblon/Androgen receptor; test: PROTAC activity at CRBN/AR in human LNCaP cells assessed as decrease in FKBP5 mRNA level at 10 to 100 nM incubated for 24 hrs by qRT-PCR analysis; format: cell-based; settings: dose 10-100 nM
Target sequence in this assay (P10275 whole entry, looked up, canonical isoform): as the sequence (P10275 whole entry, looked up, canonical isoform) above
Target sequence in this assay (Q96SW2 whole entry, looked up, canonical isoform): as the sequence (Q96SW2 whole entry, looked up, canonical isoform) above

[23] = molecular target: T1, Protein cereblon/Androgen receptor; test: PROTAC activity at CRBN/AR in human 22Rv1 cells assessed as decrease in PSA protein level incubated for 24 hrs by Western blot analysis; format: cell-based; settings: dose 1-10 nM
Target sequence in this assay (P10275 whole entry, looked up, canonical isoform): as the sequence (P10275 whole entry, looked up, canonical isoform) above
Target sequence in this assay (Q96SW2 whole entry, looked up, canonical isoform): as the sequence (Q96SW2 whole entry, looked up, canonical isoform) above

[24] = molecular target: T1, Protein cereblon/Androgen receptor; test: PROTAC activity at CRBN/AR in human 22Rv1 cells assessed as decrease in FKBP51 protein level incubated for 24 hrs by Western blot analysis; format: cell-based; settings: dose 1-10 nM
CWR22R [25] = test: Cell cycle arrest in human 22Rv1 cells assessed as accumulation of cells at G1 phase at 30 nM incubated for 24 hrs by flow cytometric analysis (reference value: 49.7 %); format: functional
LNCaP = test: Induction of apoptosis in human LNCaP cells assessed as increase in cleaved caspase-3 expression incubated for 24 hrs by Western blot analysis; format: functional, cell-based; settings: dose 1-100 nM
[26] = test system: Protein cereblon/Androgen receptor (Homo sapiens), P10275+Q96SW2 [UNDEFINED MUTATION]; test: PROTAC activity at CRBN/Androgen receptor splice variant 7 in human Enzalutamide-resistant LNCaP cells assessed as induction of AR-V7 degradation at 1 to 300 nM by Western blot analysis; format: cell-based; settings: dose 1-300 nM
[27] = Inhibition of AR W741L mutant (unknown origin) transcriptional activity transfected in HEK293T cells co-transfected with PSA-luciferase reporter and pRL-TK assessed as reduction in PSA-luciferase activity incubated for 24 hrs by luminescence based microplate reader analysis; format: cell-based, Homo sapiens
Androgen receptor = Androgen receptor (Homo sapiens, UniProt P10275, F877L); test: Inhibition of AR F876L mutant (unknown origin) transcriptional activity transfected in HEK293T cells co-transfected with PSA-luciferase reporter and pRL-TK assessed as reduction in PSA-luciferase activity incubated for 24 hrs by luminescence based microplate reader analysis; format: cell-based
Sequence of Androgen receptor (P10275 whole entry F877L): as the sequence (P10275 whole entry, looked up, canonical isoform) above, with F877L counted along it

[28] = Oral bioavailability in male ICR mouse at 10 mg/kg by LC-MS/MS analysis; format: ADME, organism-based; settings: in vivo

SMILES: COc1ccc(C(C)(C)c2cc(Cl)c(OCC3CCN(C(=O)CCCCCNc4ccc5c(c4)C(=O)N(C4CCC(=O)NC4=O)C5=O)CC3)c(C#N)c2)cc1 (configuration not stated)
- Activity [1]: 89.9%
- Activity [2]: 76.7%
- Activity [3]: 85.1%
- Activity [4]: 93.4%
- Activity [5]: 56.1%
- Activity [6]: 13.3%
- Activity [7]: 98.7%
- Activity [8]: Dose-dependent-effect
- DC50 [8]: 0.002 µM
- Activity [9]: Time-dependent-effect
- Emax [10]: 92.6%
- Emax [11]: 96.5%
- Activity [12]: inactive
- Activity [13]: inactive
- Activity (22Rv1): inactive
- Activity [14]: Active
- Activity [15]: Active
- Activity [16]: Active
- Activity [17]: Active
- IC50 (CWR22R [18]): 0.0011 µM
- Ratio IC50 [19]: 802
- Activity (CWR22R [20]): Active
- Activity (CWR22R [21]): Active
- Activity [22]: Active
- Activity [23]: Dose-dependent-effect
- Activity [24]: Dose-dependent-effect
- Activity (CWR22R [25]): 74.6%
- Activity (LNCaP): Dose-dependent-effect
- Activity [26]: Active
- IC50 [27]: 0.0623 µM
- IC50 (Androgen receptor): 0.0486 µM
- bioavailability [28]: 11.2%

Reference: ChEMBL document CHEMBL6177998, “Rational Design of Dual Degraders by Incorporating Molecular Glue Structural Features into PROTAC Degraders” (J Med Chem, 2025)
